Assay results as given in BigSolDB 2.1.

CC1(C)C2CCC1(CS(=O)(=O)O)C(=O)C2 (stereo not drawn)
solubility (mole fraction)
Details | in acetyl acetate | in methyl acetate
305.7 K | 0.099 | 0.0236
310.6 K | 0.122 | 0.0278
313.7 K | – | 0.0316
315.1 K | 0.134 | 0.0339
317.4 K | 0.15 | –
320.1 K | – | 0.0409
321.4 K | 0.161 | 0.039
324.9 K | 0.173 | 0.0459
328.9 K | 0.179 | –
329.1 K | – | 0.0546
331.7 K | 0.181 | –
334.6 K | – | 0.0726
339.1 K | – | 0.0906
